Laboratory results from patent US10087148B2, “Quinazolines as biogenic amine transport modulators” (THE UNITED STATES OF AMERICA AS REPRESENTED BY THE …, priority 2014, dated 2018).

Columns and labels:
[1] = molecular target: T1, dopamine transporter (DAT) (Rattus norvegicus (Rat), UniProt P23977); experiment: Dopamine transporter-mediated [3H]MPP+ release (d-amphetamine-induced, shift experiments) in rat caudate synaptosomes; format: biochemical
[2] = molecular target: norepinephrine transporter (NET) (Rattus norvegicus, UniProt Q63380); experiment: [3H]norepinephrine (NE) uptake inhibition in rat brain synaptosomes; format: biochemical
[3] = molecular target: T1, dopamine transporter (DAT); experiment: [3H]dopamine (DA) uptake inhibition in rat brain (caudate) synaptosomes; format: biochemical
DAT [4] = molecular target: T2, DAT (Rattus norvegicus (Rat), UniProt P23977); experiment: Inhibition of [3H]WIN35428 binding to rat caudate DAT; conditions: [3H]WIN35428
Experimental: All of the test compounds were synthesized as described herein. […] The data from three experiments were pooled and fit to a dose-response curve equation (using KaleidaGraph; Synergy Software, Reading, Pa.) to yield an Emax and IC50 value. […] Selected compounds were also tested for their ability to inhibit [^3H]WIN35428 binding to rat caudate DAT.

[5] = molecular target: serotonin transporter (SERT) (Rattus norvegicus (Rat), UniProt P31652); experiment: [3H]serotonin (5-HT) uptake inhibition in rat brain synaptosomes; format: biochemical; conditions: mean ± S.D.; n = 3; read-out: SERT Uptake Emax
DAT [6] = molecular target: T2, DAT; experiment: d-amphetamine-induced, DAT-mediated [3H]DA release (shift experiments); format: biochemical

T2 sequence (P23977 whole entry): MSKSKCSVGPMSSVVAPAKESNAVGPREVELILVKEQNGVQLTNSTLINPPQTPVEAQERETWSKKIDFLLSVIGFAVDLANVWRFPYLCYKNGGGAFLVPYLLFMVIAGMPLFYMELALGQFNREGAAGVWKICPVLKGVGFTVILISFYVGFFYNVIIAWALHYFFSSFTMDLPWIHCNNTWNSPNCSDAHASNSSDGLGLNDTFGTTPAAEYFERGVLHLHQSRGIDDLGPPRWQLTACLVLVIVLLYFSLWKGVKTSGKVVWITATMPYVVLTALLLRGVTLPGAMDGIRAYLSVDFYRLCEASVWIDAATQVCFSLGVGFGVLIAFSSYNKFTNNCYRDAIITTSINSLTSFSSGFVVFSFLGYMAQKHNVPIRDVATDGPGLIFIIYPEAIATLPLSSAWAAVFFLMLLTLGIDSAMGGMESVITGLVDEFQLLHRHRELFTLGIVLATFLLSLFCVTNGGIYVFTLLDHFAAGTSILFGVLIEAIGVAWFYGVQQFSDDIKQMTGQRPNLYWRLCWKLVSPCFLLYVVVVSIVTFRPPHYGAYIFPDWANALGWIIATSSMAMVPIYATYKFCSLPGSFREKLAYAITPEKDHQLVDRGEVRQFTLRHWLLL
T1 sequence (P23977 whole entry): as above
Chain of norepinephrine transporter (NET) (Q63380 1-617): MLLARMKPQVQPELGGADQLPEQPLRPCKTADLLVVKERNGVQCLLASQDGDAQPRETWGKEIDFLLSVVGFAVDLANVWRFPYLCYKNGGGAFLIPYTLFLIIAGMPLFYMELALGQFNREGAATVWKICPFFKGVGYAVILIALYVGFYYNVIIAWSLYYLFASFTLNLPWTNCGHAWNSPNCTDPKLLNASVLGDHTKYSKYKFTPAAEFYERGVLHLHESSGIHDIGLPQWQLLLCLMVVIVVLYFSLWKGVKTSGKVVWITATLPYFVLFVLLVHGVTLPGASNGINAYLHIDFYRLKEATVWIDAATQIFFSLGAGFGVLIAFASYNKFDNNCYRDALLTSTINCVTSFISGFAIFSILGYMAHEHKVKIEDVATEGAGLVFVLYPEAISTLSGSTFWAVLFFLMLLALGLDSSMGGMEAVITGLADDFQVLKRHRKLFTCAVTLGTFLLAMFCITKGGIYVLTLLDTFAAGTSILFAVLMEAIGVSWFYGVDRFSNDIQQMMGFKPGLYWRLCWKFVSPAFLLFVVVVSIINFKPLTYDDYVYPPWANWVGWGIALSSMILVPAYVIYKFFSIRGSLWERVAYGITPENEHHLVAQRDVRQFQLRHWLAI
Chain of serotonin transporter (SERT) (P31652 whole entry): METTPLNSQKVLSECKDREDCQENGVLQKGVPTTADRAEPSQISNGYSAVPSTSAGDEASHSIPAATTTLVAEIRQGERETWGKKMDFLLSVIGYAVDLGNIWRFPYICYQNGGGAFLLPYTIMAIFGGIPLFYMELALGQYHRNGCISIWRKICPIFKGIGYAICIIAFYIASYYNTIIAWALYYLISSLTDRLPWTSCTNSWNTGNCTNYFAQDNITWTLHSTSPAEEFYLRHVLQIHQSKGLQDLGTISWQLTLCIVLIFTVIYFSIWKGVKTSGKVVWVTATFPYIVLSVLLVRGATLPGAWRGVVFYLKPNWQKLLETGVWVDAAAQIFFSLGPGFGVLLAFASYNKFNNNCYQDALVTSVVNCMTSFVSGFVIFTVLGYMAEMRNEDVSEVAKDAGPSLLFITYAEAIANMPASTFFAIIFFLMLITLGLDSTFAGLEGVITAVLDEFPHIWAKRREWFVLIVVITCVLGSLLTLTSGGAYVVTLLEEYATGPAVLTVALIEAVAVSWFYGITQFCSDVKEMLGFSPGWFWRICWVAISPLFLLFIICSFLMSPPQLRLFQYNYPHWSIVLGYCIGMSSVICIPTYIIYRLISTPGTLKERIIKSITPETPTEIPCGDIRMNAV

c1ccc(C(CNc2nc(-c3ccc4nccn4c3)nc3ccccc23)c2ccccc2)cc1 [SRI-29574]
Apparent Kc ([1]; [3H]MPP+ release, [Blocker]/((EC50-2/EC50-1) − 1)): -368 nM
Effect on d-amphetamine-induced DAT-mediated [3H]MPP+ release curve, in words ([1]; blocking concentration ~25 times DAT uptake IC50): increased EC50 and decreased Emax
Emax ([1]; read-out: d-Amphetamine Emax in presence of blocker, [3H]MPP+ release, blocker concentration per row, mean ± S.D., n = 3): 103 ± 3%
Emax ([2]; read-out: NET Uptake Emax): 72 ± 4%
IC50 ([2]; read-out: NET Uptake IC50, mean ± S.D., n = 3): 52 ± 15 nM
Efficacy of [3H]DA (DAT) uptake inhibition, in words [3]: partially inhibited
Emax ([3]; mean ± S.D., n = 3, read-out: DAT Uptake Emax): 68 ± 2%
Emax ([3]; values in Table 9, read-out: Emax for DAT Uptake Inhibition): 68%
Inhibition of DAT binding, in words (DAT [4]): inactive
DAT Binding Emax (DAT [4]; mean ± S.D., n = 3): Inactive
DAT Binding IC50 (DAT [4]; mean ± S.D., n = 3, unit as printed in head (text gives 1100 nM where table prints 1.1)): Inactive
Emax [5]: 52 ± 2%
Apparent Kc (DAT [6]; [Blocker]/((EC50-2/EC50-1) − 1)): -239 nM
Emax (DAT [6]; read-out: d-Amphetamine Emax in presence of blocker, blocker concentration per row, mean ± S.D., n = 3): 95 ± 2%
